Columns and labels:
[1] = system: Human Jurkat-E6-1 cells; assay: Detection of IL-2 production by Jurkat cells using ELISA; assay type: cell-based; settings: anti-CD3/anti-CD28 stimulation 24 hours, read-out: Percentage of the amount of IL-2 secreted by compound treated vs DMSO-treated cells; for activity at 1 µM: tested compound 1.0 μM; for activity at 0.33 µM: tested compound 0.33 μM
Method: (§1) Tested compounds: compounds prepared in the Examples of this invention.
Human Jurkat-E6-1 cells were incubated with various concentrations of tested compounds for 30 minutes in a humidified incubator at 37° C. and 5% CO2. Cells were transferred to cell culture plates pre-coated with anti-human CD3 antibody, then soluble anti-human CD28 antibody was added, and cells were stimulated for 24 hours at 37° C. and 5% CO2 in a humidified incubator. The cell culture medium was collected after centrifugation, and was then transferred to a 96-well transparent microtiter plate (Thermo) pre-coated with anti-human IL-2 antibody, incubated at room temperature for 2 hours with gently shaking, washed with washing buffer for 4 times, and then followed the ELISA MAX Deluxe Set Human IL-2 (BioLegend) kit procedures, used a microplate reader (Molecular Device, i3X) to read the GD value at 450 nm. The best standard curve was selected by the microplate reader application software, and the corresponding concentration was calculated according to the GD value of the standard. Results are expressed as a percentage (%) of the amount of IL-2 secreted by compound-treated vs DMSO-treated cells.

[2] = biological target: HPK1 (Homo sapiens, UniProt Q92918); assay: HPK1 kinase activity inhibition test (ADP-Glo, luminescence); assay type: biochemical; settings: 2 μM ATP, 5 nM HPK1, read-out: IC50, inhibitory effects on HPK1 kinase activity
Method: The kinase activity of HPK1 is manifested as activity of autophosphorylation and phosphorylation of downstream substrates. In the process of autophosphorylation, additional substrates are not required, and ATP is consumed to generate ADP. The amount of the product is measured by ADP-Glo reagent and luminescence method to reflect kinase activity.
as §1
Preparation of compound stock solution: dissolve the test compound in 100% DMSO to make a 10 mM stock solution;
Preparation of 4×Kinase Reaction Buffer:
Preparation of 2×HPK1 Kinase Solution:
Preparation of 4×ATP Mixture:
Dilute the stock solution of the test compound by 5 times with 100% DMSO, make a 4-fold equal dilution in a 96-well dilution plate, add 1 μL of the compound to 49 μL of kinase reaction buffer, and shake on a microplate shaker for 20 minutes. Transfer 2 μL of 2×HPK1 kinase solution to 384 reaction plate, add 1 μL of the test compound to the 384 reaction plate (Greiner, Cat #784075), centrifuge for 1 minute (1000 rpm/min), incubate at 25° C. for 10 minutes. Transfer 1 μL of the 4×ATP mixture to a 384 reaction plate, centrifuge for 1 minute (1000 rpm/min), and incubate at 25° C. for 60 minutes. In the reaction system, the final concentration of DMSO is 0.5%. Transfer 4 μL of ADP-Glo to a 384 reaction plate, centrifuge for 1 minute (1000 rpm/min), and incubate at 25° C. for 40 minutes. Transfer 8 μL detection solution to a 384 reaction plate, centrifuge for 1 minute (1000 rpm/min), and incubate at 25° C. for 40 minutes. The […] is read using a Biotek multi-function plate reader, and the IC50 (half inhibitory concentration) of the compound is obtained using a four-coefficient nonlinear fitting formula.

Chain of HPK1 (Q92918 whole entry): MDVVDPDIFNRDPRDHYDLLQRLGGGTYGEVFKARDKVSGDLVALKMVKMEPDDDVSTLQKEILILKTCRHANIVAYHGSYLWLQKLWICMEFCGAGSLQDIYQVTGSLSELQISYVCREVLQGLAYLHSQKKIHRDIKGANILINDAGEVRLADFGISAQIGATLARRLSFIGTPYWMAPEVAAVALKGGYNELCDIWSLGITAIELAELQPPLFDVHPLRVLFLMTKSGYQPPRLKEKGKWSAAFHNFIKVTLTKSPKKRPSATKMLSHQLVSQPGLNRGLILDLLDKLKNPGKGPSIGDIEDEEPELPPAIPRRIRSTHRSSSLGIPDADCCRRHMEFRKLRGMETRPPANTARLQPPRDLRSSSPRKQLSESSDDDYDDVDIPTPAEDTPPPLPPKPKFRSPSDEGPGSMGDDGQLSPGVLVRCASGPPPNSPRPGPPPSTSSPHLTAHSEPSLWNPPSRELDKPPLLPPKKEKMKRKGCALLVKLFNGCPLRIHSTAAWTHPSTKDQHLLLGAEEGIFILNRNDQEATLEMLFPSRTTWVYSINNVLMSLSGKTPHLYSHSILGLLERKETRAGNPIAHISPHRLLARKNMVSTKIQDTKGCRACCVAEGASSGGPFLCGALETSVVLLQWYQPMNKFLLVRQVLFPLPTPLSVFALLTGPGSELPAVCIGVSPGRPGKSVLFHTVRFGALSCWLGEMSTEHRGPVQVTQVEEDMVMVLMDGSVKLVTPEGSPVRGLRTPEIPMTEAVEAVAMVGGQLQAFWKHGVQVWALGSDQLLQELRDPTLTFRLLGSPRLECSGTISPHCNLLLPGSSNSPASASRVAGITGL

IC50 [2] | Structure (SMILES) | activity at 1 µM [1] | activity at 0.33 µM [1]
5 to 50 nM | OC1CCN(c2ccc3cc2OCCCOc2cccc(F)c2-c2cc4c-3n[nH]c4cn2)CC1 [Compound 106, 16-fluoro-5-(4-hydroxypiperidin-1-yl)-7,11-dioxa-19,22,23-triazapentacyclo[16.5.2.1^2,6.0^12,17.0^21,24]hexacosa-1(23),2,4,6(26),12(17),13,15,18,20,24-decaene] | 504% | –
≤ 5 nM | OC1CCN(c2ccc3cc2OCCCOCc2cccc(F)c2-c2cc4c-3n[nH]c4cn2)CC1 [Compound 107, 17-fluoro-5-(4-hydroxypiperidin-1-yl)-7,11-dioxa-20,23,24-triazapentacyclo[17.5.2.1^2,6.0^13,18.0^22,25]heptacosa-1(24),2,4,6(27),13(18),14,16,19,21,25-decaene] | 345% | –
≤ 5 nM | CN1CCN(C2CCN(c3ccc4cc3OCCCOc3cccc(F)c3-c3cc5c-4n[nH]c5cn3)CC2)CC1 [Compound 108, 16-fluoro-5-[4-(4-methylpiperazin-1-yl)piperidin-1-yl]-7,11-dioxa-19,22,23-triazapentacyclo[16.5.2.1^2,6.0^12,17.0^21,24]hexacosa-1(23),2,4,6(26),12(17),13,15,18,20,24-decaene] | – | 213%
≤ 5 nM | CN1CCN(C2CCN(c3ccc4cc3OCCCOCc3cccc(F)c3-c3cc5c-4n[nH]c5cn3)CC2)CC1 [Compound 109, 17-fluoro-5-[4-(4-methylpiperazin-1-yl)piperidin-1-yl]-7,11-dioxa-20,23,24-triazapentacyclo[17.5.2.1^2,6.0^13,18.0^22,25]heptacosa-1(24),2,4,6(27),13(18),14,16,19,21,25-decaene] | 264% | –
≤ 5 nM | CN(C)C1(C)CCN(c2ccc3cc2OCCCOc2cccc(F)c2-c2cc4c-3n[nH]c4cn2)CC1 [Compound 110, 1-{16-fluoro-7,11-dioxa-19,22,23-triazapentacyclo[16.5.2.1^2,6.0^12,17.0^21,24]hexacosa-1(23),2,4,6(26),12(17),13,15,18,20,24-decaen-5-yl}-N,N,4-trimethylpiperidin-4-amine] | – | 222%
≤ 5 nM | CN(C)C1(C)CCN(c2ccc3cc2OCCCOCc2cccc(F)c2-c2cc4c-3n[nH]c4cn2)CC1 [Compound 111, 1-{17-fluoro-7,11-dioxa-20,23,24-triazapentacyclo[17.5.2.1^2,6.0^13,18.0^22,25]heptacosa-1(24),2,4,6(27),13(18),14,16,19,21,25-decaen-5-yl}-N,N,4-trimethylpiperidin-4-amine] | – | 388%
≤ 5 nM | OC1CCN(C2CCN(c3ccc4cc3OCCCOCc3cccc(F)c3-c3cc5c-4n[nH]c5cn3)CC2)CC1 [Compound 112, 1′-{17-fluoro-7,11-dioxa-20,23,24-triazapentacyclo[17.5.2.1^2,6.0^13,18.0^22,25]heptacosa-1(24),2,4,6(27),13(18),14,16,19,21,25-decaen-5-yl}-[1,4'-bipiperidin]-4-ol] | 245% | –
5 to 50 nM | OC1(CN2CCOCC2)CCN(c2ccc3cc2OCCCOc2cccc(F)c2-c2cc4c-3n[nH]c4cn2)CC1 [Compound 113, 1-{16-fluoro-7,11-dioxa-19,22,23-triazapentacyclo[16.5.2.1^2,6.0^12,17.0^21,24]hexacosa-1(23),2,4,6(26),12(17),13,15,18,20,24-decaen-5-yl}-4-[(morpholin-4-yl)methyl]piperidin-4-ol] | – | 265%
≤ 5 nM | CN1CCN(c2ccc3cc2OCC(O)COc2cccc(F)c2-c2cc4c-3n[nH]c4cn2)CC1 (stereo not drawn) [Compound 114, 16-fluoro-5-(4-methylpiperazin-1-yl)-7,11-dioxa-19,22,23-triazapentacyclo[16.5.2.1^2,6.0^12,17.0^21,24]hexacosa-1(23),2,4,6(26),12(17),13,15,18,20,24-decaen-9-ol] | – | 239%
5 to 50 nM | CN1CCN(c2ccc3cc2OCCCOCc2cccc(F)c2-c2ncc4[nH]nc-3c4n2)CC1 [Compound 115, 17-fluoro-5-(4-methylpiperazin-1-yl)-7,11-dioxa-20,23,24,26-tetraazapentacyclo[17.5.2.1^2,6.0^13,18.0^22,25]heptacosa-1(24),2,4,6(27),13(18),14,16,19,21,25-decaene] | 263% | –
≤ 5 nM | O[C@@H]1COc2cc(ccc2N2CCN3CCOC[C@H]3C2)-c2n[nH]c3cnc(cc23)-c2c(F)cccc2OC1 [Compound 120, (9S)-5-[(9aR)-octahydropyrazino[2,1-c][1,4]oxazin-8-yl]-16-fluoro-7,11-dioxa-19,22,23-triazapentacyclo[16.5.2.1^2,6.0^12,17.0^21,24]hexacosa-1(23),2,4,6(26),12(17),13,15,18,20,24-decaen-9-ol] | 494% | –
≤ 5 nM | CN1CCN(c2ccc3cc2OCCCOCc2cccc(F)c2-c2cc4c-3n[nH]c4cn2)C[C@@H]1CO [Compound 121, [(2R)-4-{17-fluoro-7,11-dioxa-20,23,24-triazapentacyclo[17.5.2.1^2,6.0^13,18.0^22,25]heptacosa-1(24),2,4,6(27),13(18),14,16,19,21,25-decaen-5-yl}-1-methylpiperazin-2-yl]methanol] | – | 467%
≤ 5 nM | O=C1OC[C@H]2CN(c3ccc4cc3OCCCOCc3cccc(F)c3-c3cc5c-4n[nH]c5cn3)CCN12 [Compound 123, (8aR)-7-{17-fluoro-7,11-dioxa-20,23,24-triazapentacyclo[17.5.2.1^2,6.0^13,18.0^22,25]heptacosa-1(24),2,4,6(27),13(18),14,16,19,21,25-decaen-5-yl}-hexahydro-1H-[1,3]oxazolo[3,4-a]pyrazin-3-one] | 440% | –
≤ 5 nM | O=C1OC[C@@H]2CN(c3ccc4cc3OCCCOCc3cccc(F)c3-c3cc5c-4n[nH]c5cn3)CCN12 [Compound 124, (8aS)-7-{17-fluoro-7,11-dioxa-20,23,24-triazapentacyclo[17.5.2.1^2,6.0^13,18.0^22,25]heptacosa-1(24),2,4,6(27),13(18),14,16,19,21,25-decaen-5-yl}-hexahydro-1H-[1,3]oxazolo[3,4-a]pyrazin-3-one] | 630% | –
≤ 5 nM | CN1C[C@H]2CN(c3ccc4cc3OCCCOCc3cccc(F)c3-c3cc5c-4n[nH]c5cn3)CCN2CC1=O [Compound 127, (9aR)-8-{17-fluoro-7,11-dioxa-20,23,24-triazapentacyclo[17.5.2.1^2,6.0^13,18.0^22,25]heptacosa-1(24),2,4,6(27),13(18),14,16,19,21,25-decaen-5-yl}-2-methyl-octahydro-1H-[1,4]diazino[1,2-a]pyrazin-3-one] | – | 475%
≤ 5 nM | CN1C[C@@H]2CN(c3ccc4cc3OCCCOCc3cccc(F)c3-c3cc5c-4n[nH]c5cn3)CCN2CC1=O [Compound 128, (9aS)-8-{17-fluoro-7,11-dioxa-20,23,24-triazapentacyclo[17.5.2.1^2,6.0^13,18.0^22,25]heptacosa-1(24),2,4,6(27),13(18),14,16,19,21,25-decaen-5-yl}-2-methyl-octahydro-1H-[1,4]diazino[1,2-a]pyrazin-3-one] | – | 452%

Structure (SMILES) | IC50 [2] | activity at 1 µM [1] | activity at 0.33 µM [1]
CN1C2CC1CN(c1ccc3cc1OCCCOCc1cccc(F)c1-c1cc4c-3n[nH]c4cn1)C2 [Compound 116, 17-fluoro-5-{6-methyl-3,6-diazabicyclo[3.1.1]heptan-3-yl}-7,11-dioxa-20,23,24-triazapentacyclo[17.5.2.1^2,6.0^13,18.0^22,25]heptacosa-1(24),2,4,6(27),13(18),14,16,19,21,25-decaene] | ≤ 5 nM | – | 450%
CN1C2CC1CN(c1ccc3cc1OCCCOc1cccc(F)c1-c1cc4c-3n[nH]c4cn1)C2 [Compound 117, 16-fluoro-5-{6-methyl-3,6-diazabicyclo[3.1.1]heptan-3-yl}-7,11-dioxa-19,22,23-triazapentacyclo[16.5.2.1^2,6.0^12,17.0^21,24]hexacosa-1(23),2,4,6(26),12(17),13,15,18,20,24-decaene] | ≤ 5 nM | 525% | –
